The results in this text go back to patent EP0266828B1, “Control of biofouling with certain alkylthioalkylamines” (THE DOW CHEMICAL COMPANY, priority 1986, dated 1988).

For assay [1], the system named is Enterobacter aerogenes, ATCC #13048. Nature of the assay: Kill time evaluation (concentration that kills all cells). The class given is cell-based. As to conditions: Klebsiella aerogenes, ATCC13048. As to the method: Hard water was prepared by sterilizing deionized water and adjusted to 500 ppm hardness and 100 ppm alkalinity by addition of 16.7 ml of sterile CaCl₂·2H₂O (36.8 g/l), 16.7 ml of sterile MgSO₄·7H₂O (12 g/l), and 5 ml of sterile NaHCO₃ (16.8 g/l) to 1 liter of water. The pH was adjusted by addition of diluted NaOH or acetic acid.
(§1) Nutrient broth containing 300 ppm total organic carbon (TOC) and 800 ppm total dissolved solids (TDS), was adjusted to pH 8.5 with NaOH and dispensed in 10 ml aliquots into 18 x 150 mm test tubes. These tubes were capped and autoclaved for 15 minutes at 121°C. Immediately before use, 50 microliters (µl) of a heat sterilized solution of 31.74 g/l MgCl₂ and 73.99 g/l CaCl₂ was added to tubes designated to contain 500 ppm hardness. The tubes with and without added hardness were readjusted to pH 8.5 by addition of appropriate amounts of a filter sterilized solution of 16.8 g/l NaHCO. One hundred and eighty and 125 µl of the NaHCO solution were added, respectively, to tubes with and without added hardness to achieve a pH of 8.5.
(§2) Unless otherwise indicated, Enterobacter aerogenes, ATCC #13048, was used as the test organism. Three 0.1 ml aliquots of a 24 hour nutrient broth culture were pipetted onto three nutrient agar plates and spread uniformly with a Petri dish spreader. After 24 hours' growth, the cells were scraped and washed off the agar surface with sterile glass rods (hockey sticks) and sterile saline solution. After vigorous mixing (vortexing) to break up clumps, the cell suspension was filtered through a sterile filter (Whatman #4) to remove residual clumps. […] Solutions with this optical density, when diluted 1:100, contained approximately 10¹⁰ CFU/ml when plated on standard nutrient agar. The exact number of organisms was determined by making serial dilutions of the cell suspension and plating them on nutrient agar plates. Each of the serial dilution tubes was also streaked on a nutrient agar plate. These streaks of known concentrations of organisms were then used as controls to determine the number of organisms in the test samples.
(§3) Just prior to the addition of the test compounds, 0.1 ml of the cell suspension containing approximately 10¹⁰ cells/ml was added to the prepared broth tubes. Solutions of 0.1 percent weight/weight (w/w) of experimental compound were prepared immediately before use. Appropriate amounts of these solutions were added to achieve final concentrations of 100, 50, 25, 10, 5 ppm of active ingredient in broth tubes both with and/or without hardness. The tubes were then incubated at 30°C. After three and/or 24 hours, dilutions of the broth tubes were made by addition of 0.1 ml of the broth into 9.9 ml of 0.85 percent saline containing 100 ppm NaHSO₃. From the saline tube the samples were streaked with cotton swabs onto nutrient agar plates which also contained 100 ppm NaHSO₃.
(§4) The plates were incubated for 24 hours and then read. The number of organisms present in the broth tubes was determined by comparing these plates to the control plates of the serial dilution tubes.
Dilute (1/10) nutrient broth was prepared according to standard methods known in the art and then adjusted to a variety of pH's by the addition of NaOH and HCl. The Kill Time Procedure substantially similar to that described in Example 2 was performed. High water hardness was not evaluated in this study.
The Kill Time Evaluation substantially similar to that described in Example 2 was performed.

A further assay deals with Enterobacter aerogenes. Briefly: Minimum inhibitory concentration (MIC) procedure in agar at alkaline pH. The class given is cell-based. Conditions: Klebsiella aerogenes; pH 8.2; 48 hours at 30°C; no high water hardness; unit ppm only from method. How it is done: The agar (nutrient agar) was dispensed in 30 ml aliquots into 25 x 200 millimeter (mm) test tubes, capped and autoclaved for 15 minutes at 115°C. The test tubes containing the agar were cooled in a water bath until the temperature of the agar was 48°C and then an appropriate amount of the one percent solution of the test compound was added (except in the controls where no test compound was added) to the respective test tubes so that final concentrations of 500, 250, 100, 50, 25, 10, 5, 2.5, 1.0 and 0 parts per million (ppm) of the test compound in the agar were obtained. The afar solutions were each mixed and poured into individual petri plates so that each petri plate contained agar having a known concentration of test compound dispersed therein. After drying for 24 hours, the petri plates were inoculated with bacteria. The inoculation with bacteria was accomplished using the following procedure. Twenty-four hour cultures of the bacteria were prepared by incubating the bacteria in tubes containing nutrient broth for 24 hours at 30°C in a shaker. Dilutions of the 24 hour culture were made so that a suspension was made, containing about 10⁸ colony forming units (CFU) per ml of suspension of bacteria. Aliquots of 0.3 ml of the above suspension were used to fill individual wells of a Steer's Replicator. The Steer's Replicator was then used to inoculate the petri plates. The petri plates were incubated at 30°C for 48 hours and then read to determine if the test compound which was incorporated into the agar prevented growth of the respective bacteria. The minimum inhibitory concentration (MIC) for each bacteria was defined as the lowest concentration of the test compound which prevented growth of that bacteria. The MIC procedure substantially as described in Example 1 was performed. High water hardness was not evaluated in this study.

For a further assay, the system named is Aspergillus niger. Nature of the assay: Kill time procedure against fungus, malt yeast agar. The class given is cell-based. As to conditions: pH of 8.2 to 8.3, read-out: Ppm of Compound that Resulted in Kill of All Cells at Various Times. How it is done: as §1, §2, §3, §4
The kill time procedure substantially as described in Example 2 was performed using Aspergillus niger at a pH of 8.2 to 8.3. Malt yeast agar was used instead of nutrient agar and the incubation times were extended to accommodate the slower growing fungi cells.

The next assay concerns algae. Nature of the assay: Cooling tower trial versus duplicate tower without biocide. As to conditions: 15 ppm added twice a week to recirculating water; pH of 8.5; hardness of 900 ppm; two week period. From the text: In comparison, the tower without any added biocide became heavily fouled with algae in the same two week period of time.
The mark [2] stands for this setting: 3 hr, pH 8.5, hardness 500 ppm CaCo3, read-out: Ppm of the Compound that Kill all Cells.
The mark [3] stands for this setting: 24 hr, pH 8.5, hardness 500 ppm CaCo3, read-out: Ppm of the Compound that Kill all Cells.

Structures are written as SMILES. Values after ≈ are worked out from the molar mass of the structure shown. Read-outs that look alike come from different tables or passages of the source. Where only a bound is given, the exact number is not on record here.

`CCCCCCCCCCSCCN` [n-decylthioethylamine]: the MBC is 20 µg/mL (≈ 92 µM) in assay [1] (setting [2]); 40 µg/mL (≈ 184 µM) in assay [1] (setting [3]); 50 µg/mL (≈ 230 µM) in assay [1] (pH 5, 3 hours, dilute (1/10) nutrient broth, no high water hardness, read-out: Concentration (ppm) of DTEA That Kills all Cells in 3 Hours); 50 µg/mL (≈ 230 µM) in assay [1] (pH 6, 3 hours, dilute (1/10) nutrient broth, no high water hardness, read-out: Concentration (ppm) of DTEA That Kills all Cells in 3 Hours); 20 µg/mL (≈ 92 µM) in assay [1] (pH 7, 3 hours, dilute (1/10) nutrient broth, no high water hardness, read-out: Concentration (ppm) of DTEA That Kills all Cells in 3 Hours); 10 µg/mL (≈ 46 µM) in assay [1] (pH 8, 3 hours, dilute (1/10) nutrient broth, no high water hardness, read-out: Concentration (ppm) of DTEA That Kills all Cells in 3 Hours). Besides, the MBC in assay [1] (pH 9, 3 hours, dilute (1/10) nutrient broth, no high water hardness, read-out: Concentration (ppm) of DTEA That Kills all Cells in 3 Hours) is 5 µg/mL (≈ 23 µM); in assay [1] (pH 10, 3 hours, dilute (1/10) nutrient broth, no high water hardness, read-out: Concentration (ppm) of DTEA That Kills all Cells in 3 Hours) it was at most 5 µg/mL; in assay [1] (pH 11, 3 hours, dilute (1/10) nutrient broth, no high water hardness, read-out: Concentration (ppm) of DTEA That Kills all Cells in 3 Hours), at most 5 µg/mL; in assay [1] (pH 12, 3 hours, dilute (1/10) nutrient broth, no high water hardness, read-out: Concentration (ppm) of DTEA That Kills all Cells in 3 Hours), at most 5 µg/mL. The same compound yielded an MIC against Enterobacter aerogenes of 10 to 25 µg/mL (≈ 46 to 115 µM). In addition, the MFC in the assay with Aspergillus niger (pH 8.2, 3 hr.) was 3.5 µg/mL (≈ 16.1 µM); in the assay on Aspergillus niger (pH 8.2, 6 hr.), 0.5 to 3.5 µg/mL (≈ 2.3 to 16.1 µM); with Aspergillus niger (pH 8.2, 24 hr.), 0.1 µg/mL (≈ 0.46 µM). For the same compound, in the assay on algae, the “growth of algae in the treated tower or basin” value is “prevent the growth of any algae”.
In the case of `CCCCCCCCCCCCCCSCCN` [n-tetradecylthioethylamine], the MBC in assay [1] (setting [2]) and in assay [1] (setting [3]) was over 500 µg/mL throughout. The MIC in the assay with Enterobacter aerogenes was over 500 µg/mL.
As to `CCCCCCCCSCCN` [n-octylthioethylamine], the MBC turned out to be 150 µg/mL (≈ 792 µM) in assay [1] (setting [2]) and 75 µg/mL (≈ 396 µM) in assay [1] (setting [3]). In the assay on Enterobacter aerogenes, this compound had an MIC of 25 µg/mL (≈ 132 µM). In addition, the MFC with Aspergillus niger (pH 8.2, 3 hr.) came to 50 µg/mL (≈ 264 µM); in the assay on Aspergillus niger (pH 8.2, 6 hr.), 25 µg/mL (≈ 132 µM); in the assay on Aspergillus niger (pH 8.2, 24 hr.), 10 µg/mL (≈ 52.8 µM).
In the assay on Enterobacter aerogenes, `CCCCCCCCCSCCN` [n-nonylthioethylamine] yielded an MIC of 25 µg/mL (≈ 123 µM).
Take `CCCCCCCCCCCCSCCN` [n-dodecylthioethylamine]: the MBC in assay [1] (setting [2]) amounted to 50 µg/mL (≈ 204 µM); in assay [1] (setting [3]), 150 µg/mL (≈ 611 µM). In the assay on Enterobacter aerogenes, the MIC fell in the range of 50 to 100 µg/mL (≈ 204 to 407 µM).
The like results for `CCCCCCSCCN` [n-hexylthioethylamine] were, in that order, 500 µg/mL (≈ 3100 µM), 250 µg/mL (≈ 1550 µM) and 250 to 500 µg/mL (≈ 1550 to 3100 µM).
In turn, `CCCCCCCCCCCSCCN` [n-undecylthioethylamine] had an MIC in the assay with Enterobacter aerogenes of 50 µg/mL (≈ 216 µM).
